Counter-ions that a name gives are not always drawn.
Key:
Lot6p [1] = target: T1, Lot6p (Saccharomyces cerevisiae, UniProt Q07923); assay: stopped-flow oxidation of reduced enzyme at […] nm; format: biochemical
T1 sequence (Q07923 1-191): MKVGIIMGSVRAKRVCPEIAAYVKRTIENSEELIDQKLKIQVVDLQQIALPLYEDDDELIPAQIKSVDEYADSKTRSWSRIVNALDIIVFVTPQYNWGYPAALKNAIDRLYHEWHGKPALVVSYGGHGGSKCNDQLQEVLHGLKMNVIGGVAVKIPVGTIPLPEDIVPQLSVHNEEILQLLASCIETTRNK

Lot6p [2] = target: T1, Lot6p; format: biochemical

Compound | k2 (Lot6p [1]) [M⁻¹ s⁻¹] | Kd (Lot6p [2]) [mM]
O=C1C=C(S(=O)(=O)O)c2ccccc2C1=O [1,2-Napthoquinone-4-sulfonic acid, Na salt] | 142000 | –
O=C1C=CC(=O)C=C1 [1,4-Benzoquinone] | 1.03e+07 | –
O=C1C=C(O)C(=O)c2ccccc21 [2-Hydroxy-1,4-naphthoquinone] | 7580 | –
COC1=C(OC)C(=O)C(C)=CC1=O [Coenzyme Q0] | 6.45e+06 | –
CC1=CC(=O)c2ccccc2C1=O [Menadione] | 677000 | –
NC(=O)C1=CN([C@@H]2O[C@H](COP(=O)(O)OP(=O)(O)OC[C@H]3O[C@@H](n4cnc5c(N)ncnc54)[C@H](O)[C@@H]3O)[C@@H](O)[C@H]2O)C=CC1 [NADH] | – | 9.6 ± 2.4
NC(=O)C1=CN([C@@H]2O[C@H](COP(=O)(O)OP(=O)(O)OC[C@H]3O[C@@H](n4cnc5c(N)ncnc54)[C@H](OP(=O)(O)O)[C@@H]3O)[C@@H](O)[C@H]2O)C=CC1 [NADPH] | – | 12.5 ± 1.1
O=C1c2ccccc2C(=O)c2c1cccc2S(=O)(=O)O [Na-anthraquinone, α-sulfonate] | 1810 | –

— PMC3004048 (Biochemistry, 2009)
